Source: paper PMC9774241, “Associating Biological Activity and Predicted Structure of Antimicrobial Peptides from Amphibians and Insects” (Antibiotics, 2022)
≈ marks a conversion by molar mass, not a printed value. Entries after “also recorded” stand apart in the source; their conditions may differ. Residues, ends and D or L forms follow the SMILES beside them. No end group written: not given here.

Tests used:
[1] = tested on: Escherichia coli ATCC 25922; assay type: cell-based; conditions: broth microdilution in MHB, peptide 128 down to 0.5 µg/mL, 20–24 h at 37 °C, no visible growth; range of three independent experiments
Method in brief: (§1)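 CLSI broth microdilution in MHB, adapted for cationic peptides, in polypropylene plates; peptides 2-fold from 128 to 0.5 µg/mL, inoculum 2–8 × 10^5 cfu/mL. Incubated 20–24 h at 37 °C; MIC = lowest concentration with no visible growth.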

[2] = tested on: Salmonella enterica serovar Enteritidis (human clinical isolate); assay type: cell-based; conditions: broth microdilution in MHB, peptide 128 down to 0.5 µg/mL, 20–24 h at 37 °C, no visible growth; range of three independent experiments
Method in brief: as §1

[3] = tested on: Staphylococcus aureus ATCC 29213; assay type: cell-based; conditions: broth microdilution in MHB, peptide 128 down to 0.5 µg/mL, 20–24 h at 37 °C, no visible growth; range of three independent experiments
Method in brief: as §1

porcine red blood cells = assay: Hemolysis assay (HC50); assay type: cell-based, pig; conditions: for hemolytic activity (in words): porcine RBCs, highest concentration tested 128 µg/mL
Method: Peptides were evaluated for toxicity using three independent hemolysis experiments. Whole blood from healthy donor pigs, supplemented with Na Citrate, was purchased from Lampire Biological Laboratories (Pipersville, PA, USA). Red blood cells (RBCs) were washed and isolated by three centrifugation cycles using Roswell Park Memorial Institute medium (RPMI; Thermo-Fisher Scientific) to create a 1% (v/v) RBC solution. […] Following a minimum 30 min incubation at 37 °C, plates were centrifuged and ½ volume from each supernatant was transferred to a new 96-well plate. The absorbance of these wells was measured at 415 nm. To quantify hemolytic activity and determine the AMP concentration that lyses 50% of the RBCs (HC50), absorbance reading from wells containing RBCs treated with 11 μL of a 2% TritonX-100 detergent solution (TX-100) or RPMI (AMP solvent-only) were used to define 100% and 0% hemolysis, respectively. All centrifugation steps were performed at 500× g for five minutes in an Allegra-6R centrifuge (Beckman Coulter, Brea, CA, USA).

HEK293 cells = assay: alamarBlue cell viability assay (cytotoxicity); assay type: cell-based, human
Method: The human embryonic kidney cell line HEK293 and the corresponding growth media and supplements were purchased from the ATCC. The cells were maintained in Eagle’s Minimum Essential Medium (EMEM) supplemented with 10% fetal bovine serum (FBS) and 1% Penicillin-Streptomycin solution and grown in a 5% CO2 incubator at 37 °C. Approximately 1 × 10^4 cells were distributed to each well of a 96-well flat-bottom cell culture plate (Corning #3595, Corning, NY, USA). Cells were incubated overnight to allow them to adhere. Lyophilized 80 µg peptide aliquots were resuspended to 1.28 mg/mL with UltraPure deionized water and serially diluted in polypropylene 96-well microtiter plates from 128-0.5 µg/mL. TX-100 was diluted to 2% in UltraPure deionized water and added as a positive control. Complete growth medium was added to the peptides and TX-100 containing wells. Spent growth medium of wells with adhered cells was replaced with the contents of wells containing serially diluted peptides or TX-100. Cells were incubated for four hours at 37 °C in 5% CO2 incubator. Growth medium containing peptides or TX-100 was replaced with fresh growth medium containing 10% (v/v) alamarBlue (Bio-Rad Laboratories, Hercules, CA, USA) and incubated for 20 h. Fluorescence was measured at excitation of 540 nm and emission of 590 nm in a Cytation 5 plate reader (Agilent BioTek, Winooski, VT, USA) and results recorded and analyzed with Gen5 software (Agilent BioTek, Winooski, VT, USA). The average fluorescence reads of TX-100 and growth media only wells were used to calculate 0% and 100% cell viability, respectively. The percentage of viable cells at each peptide concentration was determined by: cell viability%=1−fluorescence100% viable− fluorescencepeptide/fluorescence100% viable−fluorescence0% viable×100%

In the case of `CC[C@H](C)[C@H](NC(=O)CNC(=O)[C@H](CCCNC(=N)N)NC(=O)[C@H](CC(C)C)NC(=O)[C@H](CC(C)C)NC(=O)CN)C(=O)N[C@@H](CC(C)C)C(=O)NCC(=O)N[C@@H](C)C(=O)NCC(=O)N[C@@H](CCCCN)C(=O)N[C@@H](CCCCN)C(=O)N[C@H](C(=O)N[C@H](C(=O)N[C@@H](CS)C(=O)NCC(=O)N[C@@H](CC(C)C)C(=O)N[C@@H](CO)C(=O)NCC(=O)N[C@@H](CC(C)C)C(=O)N[C@@H](CS)C(=O)O)C(C)C)[C@@H](C)CC` [OdMa2] (H-GLLRGILGAGKKIVCGLSGLC-OH), the “MIC, E. coli ATCC 25922” value [1] is reported as 4 µg/mL (≈ 1.97 µM), the “MIC, Salmonella Enteritidis” value [2] is reported as 8 to 16 µg/mL and the “MIC, S. aureus ATCC 29213” value [3] is reported as 4 to 8 µg/mL. For the same molecule, the “HC50 (hemolytic 50 concentration)” value (porcine red blood cells; 1% porcine RBCs in RPMI, peptide 128 down to 1 µg/mL, minimum 30 min at 37 °C, absorbance 415 nm, three independent experiments) was 128 µg/mL.
For GIYTGRLLPVYIPQPRPPHPRLRR [ApCe1], the “MIC, E. coli ATCC 25922” value [1] was 4 to 8 µg/mL, the “MIC, Salmonella Enteritidis” value [2] was 16 to 32 µg/mL and the “MIC, S. aureus ATCC 29213” value [3] was over 128 µg/mL.
In the case of GLISGILGAGKKVLC [OdMa9], the “MIC, E. coli ATCC 25922” value [1] is reported as 64 to 128 µg/mL, the “MIC, Salmonella Enteritidis” value [2] is reported as 128 µg/mL and the “MIC, S. aureus ATCC 29213” value [3] is reported as over 128 µg/mL.
For “GLLGKVLGVGKKVLC [PeNi4, rAMPage-discovered AMP, Pelophylax nigromaculatus]”, the “MIC, E. coli ATCC 25922” value [1] was 8 to 16 µg/mL, the “MIC, Salmonella Enteritidis” value [2] was 4 to 8 µg/mL and the “MIC, S. aureus ATCC 29213” value [3] was 4 to 8 µg/mL.
GLVGKLVKGGLKLIGHVANG [RaSi1] was tested, and the “MIC, E. coli ATCC 25922” value [1] was 8 to 16 µg/mL, the “MIC, Salmonella Enteritidis” value [2] was over 128 µg/mL and the “MIC, S. aureus ATCC 29213” value [3] was 64 to 128 µg/mL.
With GSSSRSCRCIRLSRLSSKRT [NaVi4] the “MIC, E. coli ATCC 25922” value [1] was over 128 µg/mL, the “MIC, Salmonella Enteritidis” value [2] was over 128 µg/mL and the “MIC, S. aureus ATCC 29213” value [3] was over 128 µg/mL.
GWGLINIKIPPVLHKVSVPLVSKR [ApMe3] was tested, and the “MIC, E. coli ATCC 25922” value [1] was over 128 µg/mL, the “MIC, Salmonella Enteritidis” value [2] was over 128 µg/mL and the “MIC, S. aureus ATCC 29213” value [3] was over 128 µg/mL.
In the case of ISIKEALEHSFFHTVPRKWCKKH [PoSn1], the “MIC, E. coli ATCC 25922” value [1] is reported as 64 µg/mL, the “MIC, Salmonella Enteritidis” value [2] is reported as over 128 µg/mL and the “MIC, S. aureus ATCC 29213” value [3] is reported as over 128 µg/mL.
With ITEPVGTKAPTFTSELRGGWLKKR [PaVa3] the “MIC, E. coli ATCC 25922” value [1] was over 128 µg/mL, the “MIC, Salmonella Enteritidis” value [2] was over 128 µg/mL and the “MIC, S. aureus ATCC 29213” value [3] was over 128 µg/mL.
For KEERGAPKGCWTKSYPPKPCSGKR [PeNi13], the “MIC, E. coli ATCC 25922” value [1] was over 128 µg/mL, the “MIC, Salmonella Enteritidis” value [2] was over 128 µg/mL and the “MIC, S. aureus ATCC 29213” value [3] was over 128 µg/mL.
KIKIPWGKVKDFLVGGMKAVGKK [TeBi1] was tested, and the “MIC, E. coli ATCC 25922” value [1] was 1 to 2 µg/mL, the “MIC, Salmonella Enteritidis” value [2] was 4 to 8 µg/mL and the “MIC, S. aureus ATCC 29213” value [3] was 4 to 8 µg/mL. The “hemolytic activity (in words)” value (porcine red blood cells) was “not hemolytic at the concentrations tested”, the HEK293 cell viability (HEK293 cells; at 128 µg/mL, mean of three independent experiments) was 40% and the “cytotoxicity to HEK293 cells (in words)” value (HEK293 cells; at concentrations lower than 128 µg/mL) was “low or no cytotoxicity at lower concentrations”.
With KLFLTLWKLKR [NaVi3] the “MIC, E. coli ATCC 25922” value [1] was 8 to 16 µg/mL, the “MIC, Salmonella Enteritidis” value [2] was 64 µg/mL and the “MIC, S. aureus ATCC 29213” value [3] was 128 µg/mL.
With KYHHIKLRHGRHRRTIH [PaVa2] the “MIC, E. coli ATCC 25922” value [1] was over 128 µg/mL, the “MIC, Salmonella Enteritidis” value [2] was over 128 µg/mL and the “MIC, S. aureus ATCC 29213” value [3] was over 128 µg/mL.
In the case of RKIIAVSVHKLCRVKR [BoUs1], the “MIC, E. coli ATCC 25922” value [1] is reported as 64 to 128 µg/mL, the “MIC, Salmonella Enteritidis” value [2] is reported as 64 µg/mL and the “MIC, S. aureus ATCC 29213” value [3] is reported as over 128 µg/mL.
RPRPQQVPPRPPHPRLRR [PaVa1] was tested, and the “hemolytic activity (in words)” value (porcine red blood cells) was “not toxic”.
For RPRWSHRSRR [PeNi18], the “MIC, E. coli ATCC 25922” value [1] was over 128 µg/mL, the “MIC, Salmonella Enteritidis” value [2] was over 128 µg/mL and the “MIC, S. aureus ATCC 29213” value [3] was over 128 µg/mL.
For RRAIFASIRGYLGLRKR [MyGu1], the “MIC, E. coli ATCC 25922” value [1] was 4 µg/mL, the “MIC, Salmonella Enteritidis” value [2] was 8 to 16 µg/mL and the “MIC, S. aureus ATCC 29213” value [3] was 128 µg/mL.
SWLSKSVKKLVNKKNYTRLEKLAKKKLFNE [TeRu4] was tested, and the “MIC, E. coli ATCC 25922” value [1] was 1 µg/mL, the “MIC, Salmonella Enteritidis” value [2] was 2 to 4 µg/mL and the “hemolytic activity (in words)” value (porcine red blood cells) was “not hemolytic at the concentrations tested; also recorded: not toxic”. For the same molecule, the “toxicity to HEK293 cells (in words)” value (HEK293 cells; any of the concentrations tested, up to 128 µg/mL) was “not toxic”.
In the case of “TALKSLSILKKLAKLNM [PoSn2, rAMPage-discovered AMP, Polistes snelleni]”, the “MIC, E. coli ATCC 25922” value [1] is reported as 64 to 128 µg/mL, the “MIC, Salmonella Enteritidis” value [2] is reported as over 128 µg/mL and the “MIC, S. aureus ATCC 29213” value [3] is reported as over 128 µg/mL.
With VAAFAIIGCLCCRRPRR [PoRo1] the “MIC, E. coli ATCC 25922” value [1] was over 128 µg/mL, the “MIC, Salmonella Enteritidis” value [2] was over 128 µg/mL and the “MIC, S. aureus ATCC 29213” value [3] was over 128 µg/mL.
In the case of VKCRVRR [ApMe1], the “MIC, E. coli ATCC 25922” value [1] is reported as over 128 µg/mL, the “MIC, Salmonella Enteritidis” value [2] is reported as over 128 µg/mL and the “MIC, S. aureus ATCC 29213” value [3] is reported as over 128 µg/mL.
For VPFGLKPR [TeRu1], the “MIC, E. coli ATCC 25922” value [1] was over 128 µg/mL, the “MIC, Salmonella Enteritidis” value [2] was over 128 µg/mL and the “MIC, S. aureus ATCC 29213” value [3] was over 128 µg/mL.
WALRWKTR [PaVi1] was tested, and the “MIC, E. coli ATCC 25922” value [1] was over 128 µg/mL, the “MIC, Salmonella Enteritidis” value [2] was over 128 µg/mL and the “MIC, S. aureus ATCC 29213” value [3] was over 128 µg/mL.
